Data as given in ChEMBL document CHEMBL4265996, “Genetically-encoded fragment-based discovery of glycopeptide ligands for DC-SIGN” (Bioorg Med Chem, 2018).
Active and inactive are the calls of the source. The calls are words filed in the database; no cut-off is given here. Where a SMILES comes first, the peptide text is derived from it. The star is where a group is joined. X1 = O=C(/C=N/O[C@H]1O[C@H](CO)[C@@H](O)[C@H](O)[C@@H]1O)*; X2 = O=C(/C=N/O[C@H]1O[C@H](CO)[C@H](O)[C@H](O)[C@H]1O)*

Tests used:
CD209 antigen [1] = biological target: T1, CD209 antigen (Homo sapiens, UniProt Q9NNX6); assay: Inhibition of binding of trimannoside containing horseradish peroxidase to DC-SIGN carbohydrate binding domain (unknown origin) expressed in Escherichia coli preincubated for 1 hr followed by TMB substrate addition measured after 30 mins by ELISA
T1 sequence (Q9NNX6 whole entry): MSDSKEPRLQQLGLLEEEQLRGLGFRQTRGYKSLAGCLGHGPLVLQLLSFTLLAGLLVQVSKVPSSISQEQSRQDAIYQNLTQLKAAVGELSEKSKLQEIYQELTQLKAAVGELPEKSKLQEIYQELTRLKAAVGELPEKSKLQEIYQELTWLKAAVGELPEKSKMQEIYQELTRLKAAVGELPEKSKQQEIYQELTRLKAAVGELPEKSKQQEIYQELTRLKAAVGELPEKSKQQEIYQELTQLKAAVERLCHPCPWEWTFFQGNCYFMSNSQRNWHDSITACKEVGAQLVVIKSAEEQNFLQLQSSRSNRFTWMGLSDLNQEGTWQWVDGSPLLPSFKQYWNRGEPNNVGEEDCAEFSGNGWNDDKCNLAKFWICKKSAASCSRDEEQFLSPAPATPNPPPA

[2] = Binding affinity to ConA […] after 1 hr by ELISA
[3] = biological target: C-type lectin domain family 4 member K (Homo sapiens) (UniProt Q9UJ71); assay: Binding affinity to human langerin expressed in human Raji cells preincubated with Cy5 conjugated compound for 2 hrs followed by washing and measured by flow cytometric analysis; assay type: cell-based
[4] = biological target: T2, CD209 antigen (Homo sapiens) (UniProt Q9NNX6); assay: Binding affinity to recombinant human DC-SIGN expressed in human Raji cells preincubated with Cy5 conjugated compound for 2 hrs followed by washing and measured by flow cytometric analysis; assay type: cell-based
T2 sequence (whole entry): T1 sequence (Q9NNX6 whole entry)

CD209 antigen [5] = biological target: T1, CD209 antigen; assay: Binding affinity to DC-SIGN extracellular domain (unknown origin) expressed in Escherichia coli after 1 hr by ELISA
[6] = biological target: T2, CD209 antigen (Homo sapiens); assay: Binding affinity to recombinant human DC-SIGN expressed in rat-6 fibroblast preincubated with Cy5 conjugated compound for 2 hrs followed by washing and measured by flow cytometric analysis

Chain of C-type lectin domain family 4 member K (Homo sapiens) (Q9UJ71 whole entry, the tested form may be a part): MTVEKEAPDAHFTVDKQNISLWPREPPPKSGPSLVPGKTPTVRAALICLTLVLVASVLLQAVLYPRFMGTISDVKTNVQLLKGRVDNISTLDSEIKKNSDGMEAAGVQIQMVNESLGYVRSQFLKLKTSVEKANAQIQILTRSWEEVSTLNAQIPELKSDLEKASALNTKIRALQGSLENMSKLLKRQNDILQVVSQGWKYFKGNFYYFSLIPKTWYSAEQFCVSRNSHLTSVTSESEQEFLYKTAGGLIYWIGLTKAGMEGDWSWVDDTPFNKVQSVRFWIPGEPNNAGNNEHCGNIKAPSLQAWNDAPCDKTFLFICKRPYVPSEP

Row | IC50 (CD209 antigen [1]) | EC50 [2] | EC50 (CD209 antigen [5]) | SMILES | further results
1 | 6400 µM |  |  | OC[C@H]1O[C@H](O)[C@@H](O)[C@@H](O)[C@@H]1O | 
2 | 1400 µM |  |  | [N-]=[N+]=NCCCCCCO[C@H]1O[C@H](CO[C@H]2O[C@H](CO)[C@@H](O)[C@H](O)[C@@H]2O)[C@@H](O)[C@H](O[C@H]2O[C@H](CO)[C@@H](O)[C@H](O)[C@@H]2O)[C@@H]1O | 
3 | 450 µM |  |  | CC[C@H](C)[C@H](NC(=O)[C@H](CO)NC(=O)/C=N/O[C@H]1O[C@H](CO)[C@@H](O)[C@H](O)[C@@H]1O)C(=O)N[C@H](C(=O)N[C@@H](Cc1cnc[nH]1)C(=O)N[C@@H](C)C(=O)N1CCC[C@H]1C(=O)N[C@@H](CO)C(N)=O)[C@@H](C)O (stereo in doubt) | 

More lines, now with the values behind:

Row | SMILES | IC50 (CD209 antigen [1]) | EC50 [2] | EC50 (CD209 antigen [5]) | further results
4 | CSCC[C@H](NC(=O)/C=N/O[C@H]1O[C@H](CO)[C@@H](O)[C@H](O)[C@@H]1O)C(=O)N1CCC[C@H]1C(=O)N[C@@H](C)C(=O)N[C@@H](Cc1c[nH]c2ccccc12)C(=O)N[C@@H](CCCNC(=N)N)C(=O)N[C@@H](Cc1cnc[nH]1)C(=O)N[C@@H](C)C(N)=O (X1-MPAWRHA-NH2) |  | > 1 ×10¹¹ PFU | 4 ×10⁸ PFU | Activity [3]: inactive; Activity [4]: Active; Activity [6]: Active
5 | CC(C)[C@H](NC(=O)/C=N/O[C@H]1O[C@H](CO)[C@@H](O)[C@H](O)[C@@H]1O)C(=O)N[C@@H](CCC(=O)O)C(=O)N[C@@H](CCCCN)C(=O)N[C@@H](CC(N)=O)C(=O)N[C@@H](CC(=O)O)C(=O)N[C@@H](CCC(N)=O)C(=O)N[C@@H](CCCCN)C(=O)N[C@H](C(=O)N[C@@H](Cc1ccc(O)cc1)C(=O)N[C@@H](Cc1cnc[nH]1)C(=O)N[C@@H](C)C(N)=O)[C@@H](C)O (X1-VEKNDQKTYHA-NH2) |  | > 1 ×10¹¹ PFU | 2.6 ×10¹¹ PFU | Activity [6]: inactive
6 | CSCC[C@H](NC(=O)/C=N/O[C@H]1O[C@H](CO)[C@H](O)[C@H](O)[C@H]1O)C(=O)N1CCC[C@H]1C(=O)N[C@@H](C)C(=O)N[C@@H](Cc1c[nH]c2ccccc12)C(=O)N[C@@H](CCCNC(=N)N)C(=O)N[C@@H](Cc1cnc[nH]1)C(=O)N[C@@H](C)C(N)=O (X2-MPAWRHA-NH2) |  |  | 3.7 ×10¹⁰ PFU | 
7 | CC(C)[C@H](NC(=O)/C=N/O[C@H]1O[C@H](CO)[C@H](O)[C@H](O)[C@H]1O)C(=O)N[C@@H](CCC(=O)O)C(=O)N[C@@H](CCCCN)C(=O)N[C@@H](CC(N)=O)C(=O)N[C@@H](CC(=O)O)C(=O)N[C@@H](CCC(N)=O)C(=O)N[C@@H](CCCCN)C(=O)N[C@H](C(=O)N[C@@H](Cc1ccc(O)cc1)C(=O)N[C@@H](Cc1cnc[nH]1)C(=O)N[C@@H](C)C(N)=O)[C@@H](C)O (X2-VEKNDQKTYHA-NH2) |  |  | 2 ×10¹¹ PFU | 
8 | CC[C@H](C)[C@H](NC(=O)[C@H](CO)NC(=O)[C@H](CO)NC(=O)/C=N/O[C@H]1O[C@H](CO)[C@@H](O)[C@H](O)[C@@H]1O)C(=O)N[C@H](C(=O)N[C@@H](Cc1cnc[nH]1)C(=O)N[C@@H](C)C(=O)N1CCC[C@H]1C(=O)N[C@@H](CO)C(N)=O)[C@@H](C)O (stereo in doubt) |  | > 1 ×10¹¹ PFU | 2.8 ×10⁹ PFU | 
9 | CC(C)C[C@H](NC(=O)[C@H](CC(=O)O)NC(=O)[C@H](Cc1ccc(O)cc1)NC(=O)[C@H](Cc1c[nH]c2ccccc12)NC(=O)/C=N/OCCO[C@H]1O[C@H](CO)[C@@H](O)[C@H](O)[C@@H]1O)C(=O)N[C@@H](Cc1ccc(O)cc1)C(=O)N[C@@H](Cc1cnc[nH]1)C(N)=O (stereo in doubt) |  | 2.9 ×10⁹ PFU |  | 
